Article PMC3601769 (Bioorganic & medicinal chemistry letters, 2013)

system: tubulin (colchicine site); test: Inhibition of colchicine binding to tubulin

Inhibition of colchicine binding (% inhibition ± SD) at 5 μM inhibitor, inactive:
COc1ccc(OC)c(Nc2nc(-c3cccc(OC)c3OC)no2)c1 [DCP 10500070]
Fc1ccccc1Nc1nc(-c2ccccc2)no1 [DCP 10500060]
CCOC(=O)c1cccc(Nc2nc(-c3ccc(OC)cc3)no2)c1 [DCP 10500035]
